Measured values reported in patent publication US6485756B1, “Stable, homogeneous natural product extracts containing polar and apolar fractions” (Collaborative Technologies, Inc., priority 1999, dated 2002).
Several values for one entry are separate records, joined by “and”; a condition that tells them apart may be missing. Equal entries are not always repeated.

Experiments:
[1] = target: T1, Human Leukocyte Elastase (Homo sapiens, UniProt P08246); conditions: Ying et al., Biochem. J. 1991; cited from earlier work
T1 sequence (P08246 30-267): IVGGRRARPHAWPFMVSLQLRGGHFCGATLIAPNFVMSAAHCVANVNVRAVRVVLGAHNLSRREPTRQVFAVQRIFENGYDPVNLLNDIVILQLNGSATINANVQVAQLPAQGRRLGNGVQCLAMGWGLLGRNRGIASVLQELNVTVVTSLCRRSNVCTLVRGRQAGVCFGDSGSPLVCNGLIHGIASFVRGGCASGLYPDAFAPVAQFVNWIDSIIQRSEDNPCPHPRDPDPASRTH

[2] = Lipid Peroxidation assay; type: biochemical; conditions: for OD532 at indicated time (min) 0: 0 min; for OD532 at indicated time (min) 60: 60 min; for OD532 at indicated time (min) 120: 120 min; for OD532 at indicated time (min) 240: 240 min
Description: Lipid Peroxidation Assay Thiobarbituric acid (“TBA”; […]), sodium dodecyl sulfate ([…]), butylated hydroxytoluene (B1378), […]) and phosphate-buffered saline (“PBS”; 1000-3) were obtained from Sigma. Lecithin (429415) was obtained from Calbiochem. Ethanol (122898) was obtained from Aaper Alcohol and Chemical Co. Vitamin C (95209) was obtained from Fluka. Ferric chloride (AR5029) was obtained from Mallinckrodt. Optical densities were determined using a SpectraMax 250 spectrophotometer (Molecular Devices). Ultraviolet irradiation was performed using a model VWR […] Chromato-Vue transilluminator (VWR Scientific). The Lipid Peroxidation assay measures inhibition of UV-induced lipid oxidation. The reaction was performed at room temperature by irradiating liposome solutions, containing varying concentrations of test samples, with ultraviolet C light. The extent of lipid peroxidation induced by the UV light was determined by measuring the consequent production of malondialdehyde that results from breakdown of oxidized lipid. […] Vitamin C, a peroxyl radical scavenger, was included in each assay as a control for inhibition of lipid oxidation. Duplicate aliquots of the irradiation mixtures were harvested at several time points and their malondialdehyde contents were measured using the “thiobarbituric acid reaction”. […] The mixtures were heated at 100° C. for 15 minutes, cooled to room temperature and their absorbencies were read at 532 and 650 nm. The readings at 650 nm were subtracted from those at 532 nm to correct for turbidity. These corrected absorbencies were plotted as a function of irradiation time and the rate of lipid peroxidation was determined by linear regression curve fit.

[3] = test system: Cloudman S91 melanocytes; test: Melanocyte pigmentation assay; type: cell-based; conditions: conc. 30 μm; positive control
Description: Melanocyte Pigmentation Assay
The following materials were used in the melanocyte pigmentation assay. Cloudman S91 cells (36-1-38C8-16) were obtained from American Type Culture Collection. Dulbecco's Modified Eagle's Medium (“DMEM”; 11885-076), heat-inactivated horse serum (26050-088), heat-inactivated fetal bovine serum (10082-147) and 5000 units/ml penicillin/50 μg/ml streptomycin (15070-063) were obtained from Gibco BRL. Phosphate-buffered saline (PBS; 1000-3), dimethyl sulfoxide (D2650), hydroquinone (H9003), α-melanocyte stimulating hormone (M4135), trichloroacetic acid (T9159) and sodium hydroxide (S8045) were obtained from Sigma. Optical densities were determined using a Dynatech MR5000 spectrophotometer.
The melanocyte pigmentation assay measures a test sample's ability to inhibit pigmentation. […] After a 5-day treatment period with each condition tested in triplicate wells, the cells were harvested by washing with PBS and adding 5% trichloroacetic acid to each well. […] 200 μl of each digestion mixture was then transferred to a well of a 96-well microtiter plate and optical densities were read at 405 nm.
Inhibition of pigmentation is expressed as the percentage decrease in optical density compared to that for untreated cells (no test sample or hydroquinone). […]

[4] = test system: Dopa Oxidase Activity of a Mushroom Tyrosinase; conditions: Shin et al., BBRC 1998; cited from earlier work

C[C@H]1[C@H](C)CC[C@]2(C(=O)O)CC[C@]3(C)C(=CC[C@@H]4[C@@]5(C)CC[C@H](O)C(C)(C)[C@@H]5CC[C@]43C)[C@H]12 [Ursolic acid]
elastase inhibition (in words) [1]: potent elastase inhibitor

O=C1O[C@H]([C@@H](O)CO)C(O)=C1O [Vitamin C]
% antioxidant effect ([2]; Sample conc. 0.03 %): 82% and 90% | Rate of Lipid Peroxidation ([2]; Sample conc. 0.03 %): 54 MOD532/min and 30 MOD532/min | OD532 at indicated time (min) 0 ([2]; Sample conc. 0.03 %): 0.012 and 0.014 | OD532 at indicated time (min) 60 ([2]; Sample conc. 0.03 %): 0.013 and 0.0125 | OD532 at indicated time (min) 120 ([2]; Sample conc. 0.03 %): 0.016 and 0.014 | OD532 at indicated time (min) 240 ([2]; Sample conc. 0.03 %): 0.025 and 0.0205 | % antioxidant effect ([2]; Sample conc. 0.3 %): 97% and 99% | OD532 at indicated time (min) 0 ([2]; Sample conc. 0.3 %): 0.011 | OD532 at indicated time (min) 60 ([2]; Sample conc. 0.3 %): 0.012 and 0.011 | OD532 at indicated time (min) 120 ([2]; Sample conc. 0.3 %): 0.013 and 0.011 | OD532 at indicated time (min) 240 ([2]; Sample conc. 0.3 %): 0.012

Oc1ccc(O)cc1 [hydroquinone]
% inhibition [3]: 28% | Culture pigmentation (OD405nm) mean [3]: 0.747

Oc1cc(O)cc(/C=C/c2ccc(O)cc2O)c1 [oxyresveratrol]
tyrosinase inhibition (in words) [4]: very potent tyrosinase inhibitor
